The record followed here is PubChem BioAssay (NCI).

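Protocol summary: plate cells (96-well), add compound at 5 concentrations, incubate 48 h, interpolate endpoints linearly. TGI: concentration producing complete growth inhibition.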

Among the test systems are HT29 colon; SR leukemia; OVCAR-8 ovarian; MDA-MB-435; MDA-MB-231 breast; UO-31 renal; EKVX NSCLC; SNB-19 CNS; K-562 leukemia; HOP-92 NSCLC.
Assay in all cases: inhibition of tumour cell growth, NCI panel, 48 h

For the compound `S=C1c2ccccc2NC(=NC2CCCC2)C2CSCN12` (centres undefined), the TGI in the assay on HT29 colon, in the assay on SR leukemia, in the assay with OVCAR-8 ovarian, in the assay with MDA-MB-435, with MDA-MB-231 breast and in the assay on UO-31 renal was over 100 µM in each case. Moreover, the TGI with EKVX NSCLC, in the assay on SNB-19 CNS and in the assay on K-562 leukemia was over 100 µM throughout.
For `CSc1c(C(=O)Nc2ccccc2)c(N)nn1-c1ccccc1`, the TGI with HT29 colon, with SR leukemia, in the assay with OVCAR-8 ovarian, in the assay on MDA-MB-435, in the assay on MDA-MB-231 breast and in the assay on UO-31 renal was over 100 µM each time. Further, the TGI with EKVX NSCLC, with SNB-19 CNS and in the assay on K-562 leukemia was over 100 µM throughout.
Consider `O=[N+]([O-])c1cccc(-c2csc(N=Nc3c(O)[nH]c4ccccc34)n2)c1`, for which the TGI in the assay with HT29 colon was 44.5 µM; in the assay on SR leukemia, 96.9 µM; in the assay with OVCAR-8 ovarian, 30 µM; in the assay with HOP-92 NSCLC it was 46.5 µM; in the assay on MDA-MB-435, over 100 µM; in the assay with MDA-MB-231 breast, 39.5 µM. The TGI is over 100 µM in the assay on UO-31 renal, 61.8 µM with EKVX NSCLC and 82.2 µM in the assay on SNB-19 CNS.
As for `CCN1CC(C)Cn2c(=O)[nH]c3cc(Br)cc1c32` (centres undefined), the TGI was over 100 µM with HT29 colon; over 100 µM in the assay with OVCAR-8 ovarian; 9.74 µM in the assay with MDA-MB-435; over 100 µM in the assay on MDA-MB-231 breast; over 100 µM in the assay on UO-31 renal; 52 µM with EKVX NSCLC. In addition, the TGI in the assay with SNB-19 CNS and in the assay with K-562 leukemia was over 100 µM each time.
For the compound `C=CC(=O)N1C/C(=C\c2ccc(N(C)C)cc2)C(=O)/C(=C/c2ccc(N(C)C)cc2)C1`, the TGI in the assay on HT29 colon, in the assay on OVCAR-8 ovarian, in the assay on HOP-92 NSCLC, in the assay on MDA-MB-435, in the assay with MDA-MB-231 breast and in the assay on UO-31 renal was over 100 µM each time. The TGI in the assay with EKVX NSCLC, in the assay with SNB-19 CNS and in the assay with K-562 leukemia was over 100 µM in each case.
`COC1C(O)CC(OC2C(C)OC(Oc3cc(O)c4c(O)c5c(cc4c3)C[C@@H]([C@H](OC)C(=O)[C@@H](O)[C@@H](C)O)[C@H](OC3CC(OC4CC(OC6CC(C)(O)C(O)C(C)O6)C(O)C(C)O4)C(O)C(C)O3)C5=O)CC2OC(C)=O)OC1C` (some centres undefined): the TGI in the assay on HT29 colon, in the assay with SR leukemia, in the assay on OVCAR-8 ovarian, in the assay on MDA-MB-435, with MDA-MB-231 breast and in the assay with UO-31 renal was over 100 µM throughout. For the same compound, the TGI in the assay on EKVX NSCLC, in the assay on SNB-19 CNS and in the assay on K-562 leukemia was over 100 µM in each case.
Turning to `CCCCOC(=O)CNC(=O)OCCCCC#CC#CCCCCOC(=O)NCC(=O)OCCCC`, the TGI in the assay on HT29 colon, in the assay with SR leukemia, with OVCAR-8 ovarian, in the assay with UO-31 renal, with EKVX NSCLC and in the assay on SNB-19 CNS was over 100 µM each time. In the assay on K-562 leukemia, this compound showed a TGI of over 100 µM.
As to `O=C(NCCN(CCNC(=O)c1cccc(=O)n1O)CCN(CCNC(=O)c1cccc(=O)n1O)CCNC(=O)c1cccc(=O)n1O)c1cccc(=O)n1O`, the TGI in the assay with HT29 colon, with OVCAR-8 ovarian, with HOP-92 NSCLC, with MDA-MB-435, in the assay with MDA-MB-231 breast and with UO-31 renal was over 100 µM throughout. Also, the TGI in the assay with SNB-19 CNS and with K-562 leukemia was over 100 µM throughout.
`COc1ccc2c(c1)O[C@@H]1C(O)Oc3cc(OC)c(OC)cc3[C@]1(O)C2=O` (some centres undefined): the TGI in the assay on HT29 colon, in the assay on OVCAR-8 ovarian, in the assay on MDA-MB-435, with MDA-MB-231 breast, with EKVX NSCLC and in the assay on SNB-19 CNS was over 100 µM each time. The TGI with K-562 leukemia is over 100 µM.
As for `CCCCCc1cc(OC(=O)c2c(O)cc(OC)cc2CCCCC)cc(O)c1C(=O)O`, the TGI in the assay on HT29 colon was 29.9 µM; with OVCAR-8 ovarian, 36.3 µM; with HOP-92 NSCLC, 31 µM; with UO-31 renal it was 26.6 µM; in the assay with EKVX NSCLC it was 39.9 µM; with SNB-19 CNS, 25.5 µM. In addition, in the assay with K-562 leukemia, the TGI was over 100 µM.
As for `Cc1ccc(C)n2c1nc1ccc3ccccc3c12`, the TGI in the assay on HT29 colon, with SR leukemia, in the assay on OVCAR-8 ovarian, with HOP-92 NSCLC, in the assay with MDA-MB-435 and in the assay with UO-31 renal was over 100 µM each time. Besides, the TGI in the assay with EKVX NSCLC, in the assay with SNB-19 CNS and in the assay on K-562 leukemia was over 100 µM each time.
For `Cn1ccnc1Sc1ccc(/C=N/NC(=O)c2ccccc2O)cc1[N+](=O)[O-]`, the TGI in the assay on HT29 colon, in the assay on SR leukemia, in the assay with OVCAR-8 ovarian, with HOP-92 NSCLC, in the assay with MDA-MB-435 and in the assay on MDA-MB-231 breast was over 100 µM throughout. In addition, the TGI in the assay on UO-31 renal, in the assay on EKVX NSCLC and in the assay on SNB-19 CNS was over 100 µM in each case.
Regarding `COc1ccc(N[C@H](CS(=O)c2ccc(C)cc2)c2ccc(F)cc2)cc1` (some centres undefined), the TGI in the assay on HT29 colon, with OVCAR-8 ovarian, in the assay with MDA-MB-435, in the assay on MDA-MB-231 breast, in the assay with UO-31 renal and with EKVX NSCLC was over 100 µM each time. Moreover, the TGI with SNB-19 CNS and with K-562 leukemia was over 100 µM throughout.
Regarding `N#CC1=C2Sc3ccccc3N2[C@H](c2ccccc2)[C@H]2COC(=O)[C@@H]12`, the TGI in the assay with OVCAR-8 ovarian, in the assay on HOP-92 NSCLC, in the assay on MDA-MB-435, with MDA-MB-231 breast, in the assay on UO-31 renal and in the assay on EKVX NSCLC was over 100 µM throughout. Besides, in the assay on SNB-19 CNS, the TGI is over 100 µM.
As for `CC(=O)C(C(C)=O)=C1CCCC(O)O1` (centres undefined), the TGI in the assay on HT29 colon, with SR leukemia, in the assay on OVCAR-8 ovarian, in the assay on MDA-MB-435, in the assay with MDA-MB-231 breast and in the assay on UO-31 renal was over 100 µM throughout. In addition, the TGI in the assay with EKVX NSCLC, in the assay with SNB-19 CNS and in the assay with K-562 leukemia was over 100 µM each time.
